Literature values in patent US8188123B2, “(Pyrrolidin-2-yl)phenyl derivatives” (priority 2008, dated 2012).
Where two headings read alike, the source gives them in different places.

Key:
[1] = tested on: ectopic discharges in A-beta and A-delta fibres; settings: nerve injury
[2] = tested on: mechanical allodynia; settings: intraperitoneal administration; Chung/von Frey
[3] = tested on: allodynia; settings: rat CFA model of inflammatory pain
[4] = tested on: spontaneous pain; settings: rat mild thermal injury model
[5] = tested on: mechanical allodynia; settings: local administration to the sciatic nerve 4 h after surgery; Brennan model
[6] = tested on: nerve injured myelinated DRG

## CCN(c1ccccc1)c1cc(=NC)n(C)c(C)n1.Cl [ZD 7288]
[1]
  firing frequency of ectopic discharges: reduced the firing frequency of ectopic discharges in A-beta and A-delta fibres, without causing conduction block
[2]
  mechanical allodynia: dose-dependently reverses mechanical allodynia
[3]
  allodynia: suppresses allodynia
[4]
  spontaneous pain: blocks spontaneous pain
[5]
  mechanical allodynia: attenuates mechanical allodynia
[6]
  spontaneous activity: reduces spontaneous activity
